Assays:
Test in all cases: radiometric filter-binding kinase assay, Kinase HotSpot
Conditions in all cases: compound 0.5 µM; ATP 10 µM
[1] = biological target: ACVRL1 (human) (UniProt P37023)
[2] = biological target: AURKA (human) (UniProt O14965)
[3] = biological target: CDK1 CCNB1 (human) (UniProt P06493+P14635)
[4] = biological target: CDK2 CCNA2 (human) (UniProt P24941+P20248)
[5] = biological target: CDK4 CCND3 (human) (UniProt P30281+P11802)
[6] = biological target: CDK5 CDK5R1 p25 (human) (UniProt Q00535+Q15078)
[7] = biological target: CLK4 (human) (UniProt Q9HAZ1)
[8] = biological target: CSNK2A1 (human) (UniProt P68400)
[9] = biological target: CSNK2A2 (human) (UniProt P19784)
[10] = biological target: EPHA1 (human) (UniProt P21709)
[11] = biological target: EPHA2 (human) (UniProt P29317)
[12] = biological target: EPHB3 (human) (UniProt P54753)
[13] = biological target: ERBB2 (human) (UniProt P04626)
[14] = biological target: FGFR4 (human) (UniProt P22455)
[15] = tested on: FLT4 (human), P35916 [Q890H]
[16] = biological target: GRK4 (human) (UniProt P32298)
[17] = biological target: GRK6 (human) (UniProt P43250)
[18] = biological target: HCK (human) (UniProt P08631)
[19] = biological target: HIPK2 (human) (UniProt Q9H2X6)
[20] = biological target: MAP3K9 (human) (UniProt P80192)
[21] = biological target: MAPKAPK3 (human) (UniProt Q16644)
[22] = biological target: MET (human) (UniProt P08581)
[23] = biological target: NEK11 (human) (UniProt Q8NG66)
[24] = biological target: NTRK1 (human) (UniProt P04629)
[25] = biological target: NUAK2 (human) (UniProt Q9H093)
[26] = biological target: PIM1 (human) (UniProt P11309)
[27] = biological target: PKN2 (human) (UniProt Q16513)
[28] = biological target: PNCK (human) (UniProt Q6P2M8)
[29] = biological target: PRKCE (human) (UniProt Q02156)
[30] = biological target: ROS1 (human) (UniProt P08922)
[31] = biological target: RPS6KA3 KD1 KD2 (human) (UniProt P51812)
[32] = biological target: RPS6KA4 KD2 (human) (UniProt O75676)
[33] = biological target: RPS6KB2 (human) (UniProt Q9UBS0)
[34] = biological target: SRMS (human) (UniProt Q9H3Y6)
[35] = biological target: SRPK2 (human) (UniProt P78362)
[36] = biological target: TBK1 (human) (UniProt Q9UHD2)
[37] = biological target: ULK1 (human) (UniProt O75385)
[38] = biological target: ULK2 (human) (UniProt Q8IYT8)
[39] = biological target: VRK1 (human) (UniProt Q99986)
[40] = biological target: WEE1 (human) (UniProt P30291)
[41] = biological target: WNK2 (human) (UniProt Q9Y3S1)

Sequence of CDK5 CDK5R1 p25 (human) (Q00535 whole entry, looked up): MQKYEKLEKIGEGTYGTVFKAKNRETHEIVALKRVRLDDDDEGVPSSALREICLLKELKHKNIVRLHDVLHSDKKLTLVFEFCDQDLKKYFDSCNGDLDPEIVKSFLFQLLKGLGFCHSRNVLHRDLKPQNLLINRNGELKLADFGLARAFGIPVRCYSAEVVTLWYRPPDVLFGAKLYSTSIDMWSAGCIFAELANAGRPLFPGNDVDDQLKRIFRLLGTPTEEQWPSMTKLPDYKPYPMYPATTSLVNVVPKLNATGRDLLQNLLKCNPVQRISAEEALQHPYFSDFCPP
Sequence of CDK5 CDK5R1 p25 (human) (Q15078 whole entry, looked up): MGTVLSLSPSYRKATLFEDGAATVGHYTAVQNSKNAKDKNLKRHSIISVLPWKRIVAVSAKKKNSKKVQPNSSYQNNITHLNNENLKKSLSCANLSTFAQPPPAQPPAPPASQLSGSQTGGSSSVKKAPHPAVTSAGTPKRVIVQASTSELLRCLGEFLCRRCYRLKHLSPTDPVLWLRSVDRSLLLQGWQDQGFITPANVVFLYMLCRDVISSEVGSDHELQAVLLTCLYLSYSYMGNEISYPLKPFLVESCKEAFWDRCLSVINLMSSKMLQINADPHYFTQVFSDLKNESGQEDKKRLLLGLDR
Sequence of PNCK (human) (Q6P2M8 whole entry, looked up): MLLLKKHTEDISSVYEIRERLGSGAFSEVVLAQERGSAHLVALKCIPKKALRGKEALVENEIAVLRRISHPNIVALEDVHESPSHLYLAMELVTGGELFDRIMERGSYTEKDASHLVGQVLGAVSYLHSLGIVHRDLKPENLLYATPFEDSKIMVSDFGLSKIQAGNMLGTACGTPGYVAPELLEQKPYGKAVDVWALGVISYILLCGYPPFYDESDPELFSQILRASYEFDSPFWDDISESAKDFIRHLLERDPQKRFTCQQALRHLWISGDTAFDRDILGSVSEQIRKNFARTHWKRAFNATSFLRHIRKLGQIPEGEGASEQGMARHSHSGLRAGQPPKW
Sequence of ERBB2 (human) (P04626 whole entry, looked up): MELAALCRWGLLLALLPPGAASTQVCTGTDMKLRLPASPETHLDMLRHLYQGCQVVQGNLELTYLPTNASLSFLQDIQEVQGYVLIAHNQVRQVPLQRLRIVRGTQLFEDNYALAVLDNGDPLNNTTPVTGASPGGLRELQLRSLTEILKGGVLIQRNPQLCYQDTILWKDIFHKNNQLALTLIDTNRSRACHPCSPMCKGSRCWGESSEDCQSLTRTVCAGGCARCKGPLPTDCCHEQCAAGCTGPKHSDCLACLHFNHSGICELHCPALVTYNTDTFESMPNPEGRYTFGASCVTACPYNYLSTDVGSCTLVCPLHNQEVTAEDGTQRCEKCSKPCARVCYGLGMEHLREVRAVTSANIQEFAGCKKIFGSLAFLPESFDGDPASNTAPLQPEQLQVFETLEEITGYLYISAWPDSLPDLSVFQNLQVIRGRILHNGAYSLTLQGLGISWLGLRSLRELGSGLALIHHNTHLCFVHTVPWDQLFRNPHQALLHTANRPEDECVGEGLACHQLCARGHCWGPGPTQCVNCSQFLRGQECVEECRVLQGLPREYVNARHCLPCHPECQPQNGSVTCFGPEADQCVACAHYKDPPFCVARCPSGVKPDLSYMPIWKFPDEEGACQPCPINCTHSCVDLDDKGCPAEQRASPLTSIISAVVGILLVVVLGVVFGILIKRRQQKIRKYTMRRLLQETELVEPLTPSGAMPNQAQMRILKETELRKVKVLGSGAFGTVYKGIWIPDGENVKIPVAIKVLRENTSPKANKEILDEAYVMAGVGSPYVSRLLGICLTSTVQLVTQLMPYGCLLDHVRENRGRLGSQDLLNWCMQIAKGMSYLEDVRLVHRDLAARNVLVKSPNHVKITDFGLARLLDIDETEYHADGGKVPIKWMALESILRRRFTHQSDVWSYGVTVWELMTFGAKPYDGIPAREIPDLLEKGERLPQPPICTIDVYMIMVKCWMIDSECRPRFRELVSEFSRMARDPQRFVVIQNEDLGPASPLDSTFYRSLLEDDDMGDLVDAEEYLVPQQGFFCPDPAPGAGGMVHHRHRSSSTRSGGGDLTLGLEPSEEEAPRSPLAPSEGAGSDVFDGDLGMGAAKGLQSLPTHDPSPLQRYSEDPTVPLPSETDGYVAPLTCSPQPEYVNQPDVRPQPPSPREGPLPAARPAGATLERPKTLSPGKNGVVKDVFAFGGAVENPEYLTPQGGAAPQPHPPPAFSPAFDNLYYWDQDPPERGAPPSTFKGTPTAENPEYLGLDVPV
Sequence of EPHA1 (human) (P21709 whole entry, looked up): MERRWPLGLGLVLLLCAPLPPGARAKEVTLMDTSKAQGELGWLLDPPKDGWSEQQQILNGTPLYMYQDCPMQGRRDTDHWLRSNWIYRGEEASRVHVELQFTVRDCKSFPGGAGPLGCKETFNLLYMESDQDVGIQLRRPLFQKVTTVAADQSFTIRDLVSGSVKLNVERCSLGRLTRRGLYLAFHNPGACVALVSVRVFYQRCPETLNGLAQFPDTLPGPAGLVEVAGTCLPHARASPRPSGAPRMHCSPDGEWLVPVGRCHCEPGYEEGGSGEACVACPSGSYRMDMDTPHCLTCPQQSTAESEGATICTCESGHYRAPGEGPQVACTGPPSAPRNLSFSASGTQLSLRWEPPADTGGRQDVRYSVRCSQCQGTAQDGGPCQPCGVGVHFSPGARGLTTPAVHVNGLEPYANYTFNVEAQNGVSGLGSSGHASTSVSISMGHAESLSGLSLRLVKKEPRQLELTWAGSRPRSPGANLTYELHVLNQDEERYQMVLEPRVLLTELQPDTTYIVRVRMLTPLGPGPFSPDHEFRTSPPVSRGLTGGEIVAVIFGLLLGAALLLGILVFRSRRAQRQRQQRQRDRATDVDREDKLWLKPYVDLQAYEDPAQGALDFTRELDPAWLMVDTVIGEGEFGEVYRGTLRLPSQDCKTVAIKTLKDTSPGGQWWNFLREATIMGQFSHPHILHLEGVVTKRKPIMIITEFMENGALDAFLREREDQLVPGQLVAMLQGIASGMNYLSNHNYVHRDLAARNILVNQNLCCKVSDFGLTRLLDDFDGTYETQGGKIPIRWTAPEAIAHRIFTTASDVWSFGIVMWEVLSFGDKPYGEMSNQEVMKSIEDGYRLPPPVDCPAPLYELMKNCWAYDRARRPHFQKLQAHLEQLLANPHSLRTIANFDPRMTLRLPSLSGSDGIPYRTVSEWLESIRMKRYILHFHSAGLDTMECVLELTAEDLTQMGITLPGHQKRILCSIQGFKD
Sequence of EPHB3 (human) (P54753 whole entry, looked up): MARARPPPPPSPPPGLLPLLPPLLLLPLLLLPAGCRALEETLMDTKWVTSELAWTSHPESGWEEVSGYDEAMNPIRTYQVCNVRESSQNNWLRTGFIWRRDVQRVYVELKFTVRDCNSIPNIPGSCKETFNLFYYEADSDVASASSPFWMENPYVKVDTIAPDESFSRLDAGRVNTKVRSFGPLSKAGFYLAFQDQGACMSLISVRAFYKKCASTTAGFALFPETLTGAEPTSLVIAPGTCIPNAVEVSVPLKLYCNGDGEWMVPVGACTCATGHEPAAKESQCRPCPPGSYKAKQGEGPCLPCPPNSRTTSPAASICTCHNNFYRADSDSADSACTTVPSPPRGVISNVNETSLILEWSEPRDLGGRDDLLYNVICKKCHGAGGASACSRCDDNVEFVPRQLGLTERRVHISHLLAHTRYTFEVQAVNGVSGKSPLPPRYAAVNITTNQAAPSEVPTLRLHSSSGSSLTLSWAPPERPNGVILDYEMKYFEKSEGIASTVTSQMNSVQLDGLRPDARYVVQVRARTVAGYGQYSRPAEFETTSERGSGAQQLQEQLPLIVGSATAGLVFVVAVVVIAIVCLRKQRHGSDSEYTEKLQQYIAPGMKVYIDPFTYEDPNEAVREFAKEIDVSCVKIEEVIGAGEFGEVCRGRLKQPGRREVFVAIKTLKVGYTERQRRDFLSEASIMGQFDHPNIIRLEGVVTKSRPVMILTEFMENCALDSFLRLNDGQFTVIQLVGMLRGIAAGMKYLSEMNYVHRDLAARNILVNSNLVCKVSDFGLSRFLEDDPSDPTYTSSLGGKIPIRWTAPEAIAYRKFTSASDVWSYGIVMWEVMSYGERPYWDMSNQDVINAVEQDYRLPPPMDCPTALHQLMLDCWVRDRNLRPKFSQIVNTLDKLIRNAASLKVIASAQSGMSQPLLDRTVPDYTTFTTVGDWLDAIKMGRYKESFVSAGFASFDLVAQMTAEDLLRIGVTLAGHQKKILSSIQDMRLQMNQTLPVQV
Sequence of VRK1 (human) (Q99986 whole entry, looked up): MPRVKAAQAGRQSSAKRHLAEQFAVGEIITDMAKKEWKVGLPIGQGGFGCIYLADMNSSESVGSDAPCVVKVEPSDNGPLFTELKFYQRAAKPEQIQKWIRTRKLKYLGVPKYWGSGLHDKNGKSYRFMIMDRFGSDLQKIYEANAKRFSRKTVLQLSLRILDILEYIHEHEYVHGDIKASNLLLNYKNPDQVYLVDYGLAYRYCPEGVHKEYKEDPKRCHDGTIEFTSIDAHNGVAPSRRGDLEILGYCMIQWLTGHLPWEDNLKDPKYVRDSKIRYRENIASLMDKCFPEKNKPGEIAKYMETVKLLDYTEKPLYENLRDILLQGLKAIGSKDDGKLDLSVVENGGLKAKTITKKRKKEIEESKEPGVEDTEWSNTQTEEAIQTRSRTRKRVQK
Sequence of MAPKAPK3 (human) (Q16644 whole entry, looked up): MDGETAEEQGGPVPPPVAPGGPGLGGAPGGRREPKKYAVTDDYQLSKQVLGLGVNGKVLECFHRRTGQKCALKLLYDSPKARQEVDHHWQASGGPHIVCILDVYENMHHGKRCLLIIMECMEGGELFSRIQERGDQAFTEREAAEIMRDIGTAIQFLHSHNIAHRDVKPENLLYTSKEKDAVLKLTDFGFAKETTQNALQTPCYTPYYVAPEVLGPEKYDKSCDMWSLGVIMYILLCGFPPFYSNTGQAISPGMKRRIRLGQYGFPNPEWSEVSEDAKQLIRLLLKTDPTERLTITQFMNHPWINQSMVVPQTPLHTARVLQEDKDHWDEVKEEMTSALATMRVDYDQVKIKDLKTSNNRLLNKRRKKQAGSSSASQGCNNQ

Ic1cccc(CSc2nnc(-c3ccncc3)o2)c1
residual activity [1]: 103%
residual activity [2]: 95.8%
residual activity [3]: 92%
residual activity [4]: 100%
residual activity [5]: 97.5%
residual activity [6]: 90.5%
residual activity [7]: 90%
residual activity [8]: 97.3%
residual activity [9]: 81%
residual activity [10]: 97%
residual activity [11]: 102%
residual activity [12]: 99.7%
residual activity [13]: 99.6%
residual activity [14]: 97.2%
residual activity [15]: 96.2%
residual activity [16]: 99.9%
residual activity [17]: 100%
residual activity [18]: 104%
residual activity [19]: 102%
residual activity [20]: 108%
residual activity [21]: 109%
residual activity [22]: 88.7%
residual activity [23]: 113%
residual activity [24]: 96%
residual activity [25]: 98.9%
residual activity [26]: 102%
residual activity [27]: 100%
residual activity [28]: 101%
residual activity [29]: 86.5%
residual activity [30]: 99.3%
residual activity [31]: 96.4%
residual activity [32]: 92.1%
residual activity [33]: 103%
residual activity [34]: 93.4%
residual activity [35]: 97.4%
residual activity [36]: 103%
residual activity [37]: 97.1%
residual activity [38]: 111%
residual activity [39]: 93.1%
residual activity [40]: 97.2%
residual activity [41]: 99.5%

O=C1Nc2ccc(Br)cc2/C1=C\c1cc2c([nH]1)CCCC2
residual activity [1]: 103%
residual activity [2]: 87.5%
residual activity [3]: 98.5%
residual activity [4]: 90.8%
residual activity [5]: 99.8%
residual activity [6]: 91.3%
residual activity [7]: 84.5%
residual activity [8]: 96.1%
residual activity [10]: 93.1%
residual activity [11]: 110%
residual activity [12]: 99.7%
residual activity [13]: 115%
residual activity [14]: 77%
residual activity [15]: 56.1%
residual activity [16]: 101%
residual activity [17]: 95.8%
residual activity [18]: 88.5%
residual activity [19]: 91%
residual activity [20]: 53.4%
residual activity [21]: 95.1%
residual activity [22]: 81.6%
residual activity [23]: 111%
residual activity [24]: 51.8%
residual activity [25]: 133%
residual activity [26]: 101%
residual activity [27]: 91.3%
residual activity [28]: 98.6%
residual activity [29]: 99.1%
residual activity [30]: 98.6%
residual activity [31]: 80.9%
residual activity [32]: 94.2%
residual activity [33]: 102%
residual activity [34]: 104%
residual activity [35]: 90.6%
residual activity [36]: 66.9%
residual activity [37]: 69.4%
residual activity [38]: 114%
residual activity [39]: 108%
residual activity [40]: 95.9%
residual activity [41]: 101%

Reference: the kinase profiling compilation of Christmann-Franck et al. (2016)
